Measurements published in ChEMBL document CHEMBL4007488, “Amphiphilic Indole Derivatives as Antimycobacterial Agents: Structure-Activity Relationships and Membrane Targeting Properties” (J Med Chem, 2017).

What was measured:
Type in all cases: functional
[1] = tested on: Mycobacterium tuberculosis variant bovis BCG; assay: Ratio of WCC99.9 for Mycobacterium bovis BCG ATCC 35734 under low-oxygen tension conditions to MIC90 for Mycobacterium bovis BCG ATCC 35734
[2] = tested on: Mycobacterium tuberculosis variant bovis BCG; assay: Ratio of WCC99.9 for Mycobacterium bovis BCG ATCC 35734 under low-oxygen tension conditions to MBC99.9 for Mycobacterium bovis BCG ATCC 35734
[3] = tested on: Mycobacterium tuberculosis variant bovis BCG; assay: Ratio of MBC99.9 to MIC90 for Mycobacterium bovis BCG ATCC 35734

CCCCCCCCn1cc(CN2CCCCCC2)c2c(F)cccc21
Ratio [1]: >4
Ratio [2]: >2
Ratio [3]: 2
